Measured values: ChEMBL document CHEMBL1201862, “PubChem BioAssay data set” (2004)
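Protocol summary: plate cells (96-well), add compound at 5 concentrations, incubate 48 h, interpolate endpoints linearly. The concentration for 50% growth inhibition is given as GI50.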 Active and inactive are the calls of the source. Cut-off read from the data, not from the text of the source: active = GI50 up to about 1.1 µM and inactive = higher.

Key:
Assay in all cases: NCI anticancer screen, dose series, 48 h
[1] = tested on: MDA-MB-435
[2] = tested on: OVCAR-8
[3] = tested on: EKVX
[4] = tested on: HCT-116
[5] = tested on: SN12C
[6] = tested on: MOLT-4
[7] = tested on: MDA-N
[8] = tested on: SNB-75
[9] = tested on: SK-MEL-2
[10] = tested on: SR
[11] = tested on: COLO 205
[12] = tested on: NCI-H522
[13] = tested on: UO-31
[14] = tested on: LOX IMVI
[15] = tested on: SNB-19
[16] = tested on: SW-620
[17] = tested on: T47D
[18] = tested on: SK-MEL-28
[19] = tested on: NCI-H460
[20] = tested on: HOP-92

Structure (SMILES)	GI50 [1]	GI50 [2]	GI50 [3]	GI50 [4]	GI50 [5]	GI50 [6]	GI50 [7]	GI50 [8]	GI50 [9]	GI50 [10]	GI50 [11]	GI50 [12]	GI50 [13]	GI50 [14]	GI50 [15]	GI50 [16]	GI50 [17]	GI50 [18]	GI50 [19]	GI50 [20]
CC1(C)OC2C(=O)C=C(COCc3ccccc3)C2O1 (stereo unspecified)	25.2 µM (inactive)	34.2 µM (inactive)	37.5 µM (inactive)	23.6 µM (inactive)	28 µM (inactive)	28.4 µM (inactive)	34.8 µM (inactive)	> 10 µM (inactive)	38.9 µM (inactive)	35.1 µM (inactive)	20.5 µM (inactive)	16.5 µM (inactive)	21.9 µM (inactive)	25.6 µM (inactive)	47.2 µM (inactive)	23.6 µM (inactive)	23 µM (inactive)	30 µM (inactive)	–	–
NC(=O)c1nnc2c(F)cccc2c1N	77.3 µM (inactive)	> 100 µM (inactive)	> 100 µM (inactive)	64.4 µM (inactive)	> 100 µM (inactive)	> 100 µM (inactive)	66.5 µM (inactive)	> 100 µM (inactive)	> 100 µM (inactive)	> 100 µM (inactive)	73.3 µM (inactive)	21.9 µM (inactive)	56 µM (inactive)	52 µM (inactive)	> 100 µM (inactive)	27.4 µM (inactive)	> 100 µM (inactive)	–	72.1 µM (inactive)	–
COC(=O)C1=CSC2(S1)C(C(=O)OC)=CSc1c2ss/c1=N\c1ccccc1 (stereo unspecified)	1.78 µM (inactive)	1.81 µM (inactive)	4.59 µM (inactive)	1.83 µM (inactive)	1.88 µM (inactive)	0.714 µM (active)	2.17 µM (inactive)	2.22 µM (inactive)	2 µM (inactive)	0.605 µM (active)	2.16 µM (inactive)	1.25 µM (inactive)	2.52 µM (inactive)	1.67 µM (inactive)	2.47 µM (inactive)	2.51 µM (inactive)	7.64 µM (inactive)	2.38 µM (inactive)	3.07 µM (inactive)	–
COc1cc(N(Cc2ccc3nc(OC)c(OC)nc3c2)Cc2ccc3nc(OC)c(OC)nc3c2)cc(OC)c1OC	> 50 µM (inactive)	> 50 µM (inactive)	39.3 µM (inactive)	33.2 µM (inactive)	> 50 µM (inactive)	> 50 µM (inactive)	> 50 µM (inactive)	6.9 µM (inactive)	20.9 µM (inactive)	> 50 µM (inactive)	> 50 µM (inactive)	> 50 µM (inactive)	31.5 µM (inactive)	> 50 µM (inactive)	14.9 µM (inactive)	> 50 µM (inactive)	> 50 µM (inactive)	> 50 µM (inactive)	–	–
CC(=O)C12C[C@](C#N)(N3CCCCCC3)C1C=Cc1ccccc12 (stereo partly specified)	> 100 µM (inactive)	> 100 µM (inactive)	> 100 µM (inactive)	> 100 µM (inactive)	> 100 µM (inactive)	> 100 µM (inactive)	> 100 µM (inactive)	> 100 µM (inactive)	–	> 100 µM (inactive)	> 100 µM (inactive)	> 100 µM (inactive)	> 100 µM (inactive)	–	> 100 µM (inactive)	> 100 µM (inactive)	> 100 µM (inactive)	> 100 µM (inactive)	> 100 µM (inactive)	–
CC1=CC(=O)/C(=C(/C)NCCN(CCN/C(C)=C2\C(=O)C=C(C)OC2=O)CCN/C(C)=C2\C(=O)C=C(C)OC2=O)C(=O)O1	> 100 µM (inactive)	> 100 µM (inactive)	> 100 µM (inactive)	> 100 µM (inactive)	> 100 µM (inactive)	> 100 µM (inactive)	> 100 µM (inactive)	> 100 µM (inactive)	–	> 100 µM (inactive)	> 100 µM (inactive)	> 100 µM (inactive)	> 100 µM (inactive)	–	> 100 µM (inactive)	> 100 µM (inactive)	> 100 µM (inactive)	> 100 µM (inactive)	> 100 µM (inactive)	–
C#CCOCC12C=CC(O1)C1C(=O)OCC12 (stereo unspecified)	> 100 µM (inactive)	> 100 µM (inactive)	> 100 µM (inactive)	> 100 µM (inactive)	> 100 µM (inactive)	> 100 µM (inactive)	> 100 µM (inactive)	> 100 µM (inactive)	–	> 100 µM (inactive)	> 100 µM (inactive)	> 100 µM (inactive)	> 100 µM (inactive)	> 100 µM (inactive)	> 100 µM (inactive)	> 100 µM (inactive)	> 100 µM (inactive)	> 100 µM (inactive)	> 100 µM (inactive)	–
Clc1ccc(CNc2nc(Cl)c3nc[nH]c3n2)cc1Cl	32 µM (inactive)	17.9 µM (inactive)	25.2 µM (inactive)	15.9 µM (inactive)	21.6 µM (inactive)	33.6 µM (inactive)	26.4 µM (inactive)	32.1 µM (inactive)	22.3 µM (inactive)	26.5 µM (inactive)	22.6 µM (inactive)	11.3 µM (inactive)	11.4 µM (inactive)	–	34 µM (inactive)	–	6.71 µM (inactive)	–	28.2 µM (inactive)	–
O=C(CC(C(=O)c1cccs1)c1ccsc1)c1ccc(Cl)cc1 (stereo unspecified)	> 100 µM (inactive)	> 100 µM (inactive)	> 100 µM (inactive)	> 100 µM (inactive)	> 100 µM (inactive)	> 100 µM (inactive)	> 100 µM (inactive)	> 100 µM (inactive)	> 100 µM (inactive)	> 100 µM (inactive)	> 100 µM (inactive)	–	> 100 µM (inactive)	> 100 µM (inactive)	> 100 µM (inactive)	> 100 µM (inactive)	> 100 µM (inactive)	> 100 µM (inactive)	> 100 µM (inactive)	–
COc1ccc(NC(=S)c2ccc(CN3CCCCC3)s2)cc1	19.6 µM (inactive)	17.9 µM (inactive)	18.8 µM (inactive)	16.9 µM (inactive)	47 µM (inactive)	20.1 µM (inactive)	18.5 µM (inactive)	–	19.4 µM (inactive)	16.8 µM (inactive)	16.2 µM (inactive)	14.8 µM (inactive)	18.4 µM (inactive)	18.1 µM (inactive)	21.3 µM (inactive)	19.4 µM (inactive)	19.8 µM (inactive)	17.3 µM (inactive)	17.5 µM (inactive)	–
CCCCCCCCCCCCCCCC(=O)Nc1ccn(C2CCC(COP(=O)(O)OCC3OC(n4cc(F)c(=O)[nH]c4=O)CC3OC(C)=O)O2)c(=O)n1 (stereo unspecified)	15.5 µM (inactive)	10.6 µM (inactive)	28.8 µM (inactive)	8.04 µM (inactive)	13.1 µM (inactive)	9.31 µM (inactive)	19.6 µM (inactive)	14.9 µM (inactive)	23.1 µM (inactive)	–	13.1 µM (inactive)	12.3 µM (inactive)	7.48 µM (inactive)	7.1 µM (inactive)	3.66 µM (inactive)	16.9 µM (inactive)	18.3 µM (inactive)	17.9 µM (inactive)	0.531 µM (active)	5.62 µM (inactive)
